Tests used:
Assay type in all cases: cell-based
[1] = tested on: human alveolar basal epithelial adenocarcinoma cells, A549; experiment: Multipolarity-inducing activity assay 3 (A549 cells synchronized in G2 phase (or M phase)); conditions: 10 μM peptide, number of M-phase cells 100
Experimental: Some of the sample peptides obtained in Example 1 were tested for multipolarity-inducing activity against target cultured tumor cells. As the tumor cells tested, cells forming a […] (human alveolar basal epithelial adenocarcinoma cells, A549) were used. The cell line was cultured in the same manner as Example 2 described above. The resulting cultured tumor cells were synchronized in the G2 phase (or M phase) in the same manner as Example 3 described above. Similarly to Examples 2 and 3 described above (the number of M-phase cells was 100 herein), the presence of multipolarity was observed by immunofluorescence under fluorescence microscope.

[2] = tested on: HeLa cell line (HeLa S3); experiment: Multipolarity-inducing activity assay 2 (cells synchronized in G2 phase (or M phase) by nocodazole); conditions: 10 μM peptide, 4 hours with peptide + 2 hours without; for Multipolar level (%): % multipolar cells relative to M-phase cells; for Number of multipolar cells: count among 60 M-phase cells
Experimental: The same sample peptides as those used in Example 2 above were used and tested for multipolarity-inducing activity against cultured tumor cells synchronized in the G2 phase (or M phase). Details of the assay are as described below.
As the tumor cells tested, a HeLa cell line (HeLa S3) was used. The cell line was cultured under the same conditions as Example 2 and seeded at about 3×10^4 cells per well in an 8-well slide glass. Thymidine was added to the culture medium to a final concentration of 2.5 mM. Incubation was carried out at 37° C. under 5% CO2 for 18 hours. The culture medium was exchanged to remove thymidine and incubation was carried out for 6 more hours. Subsequently, nocodazole was added to a final concentration of 0.1 μg/mL and incubation was carried out for 16 hours. By such addition of nocodazole, the cells being cultured were synchronized in the G2 phase (M phase) of the cell cycle.
After the 16 hours of incubation, without exchanging the culture medium (i.e. with nocodazole being contained), one of the sample peptides was added to each well to a peptide concentration in the well of 10 μM and incubation was carried out for 4 hours. Subsequently, the culture medium was exchanged and incubation was continued for 2 more hours without nocodazole or the sample peptide.
After the 2 hours of incubation, in the same manner as Example 2, the presence of multipolarity was observed by immunofluorescence under fluorescence microscope.

[3] = tested on: HeLa cell line (HeLa S3); experiment: Multipolarity-inducing activity assay 1 (cells synchronized in G1 phase by double thymidine block); conditions: 10 μM peptide, 6 hours incubation; for Multipolar level (%): % multipolar cells relative to M-phase cells; for Number of multipolar cells: count among the M-phase cells observed
Experimental: Some of the sample peptides obtained in Example 1 were tested for multipolarity-inducing activity against target cultured tumor cells. Details of the assay are as described below.
As the tumor cells tested, a HeLa cell line (HeLa S3) was used. The cell line was cultured beforehand in a DMEM medium (i.e. Dulbecco MEM medium (DMEM medium, a Gibco product) containing 10% fetal bovine serum (FBS, a Gibco product), 2 mM of L-glutamine, 50 unit/mL of penicillin, and 50 μg/mL of streptomycin), and seeded at about 3×10^4 cells per well in an 8-well slide glass. Thymidine was added to the culture medium to a final concentration of 2.5 mM. Incubation was carried out at 37° C. under 5% CO2 for 16 hours. The culture medium was exchanged to remove thymidine and incubation was carried out for 8 more hours. Subsequently, thymidine was added again to a final concentration of 2.5 mM and incubation was carried out for 16 hours.
By such double thymidine block, the cells being cultured were synchronized in the G1 phase of the cell cycle. After such synchronization treatment, the culture medium was exchanged to remove thymidine and incubation was carried out for 2 more hours. Subsequently, one of the sample peptides was added to each well. In this example, one of Samples 1, 4, 5, 7, 9 and 11 was added to a peptide concentration in the well of 10 μM.
After a sample peptide was added as described above, the 8-well slid glass was incubated under the aforementioned conditions for 6 hours.
After 6 hours of incubation, the presence of multipolarity was observed by immunofluorescence under fluorescence microscope. In particular, after 6 hours of incubation following the addition of a sample peptide, the cultured cells were subjected to nuclear staining with DAPI (4′,6-diamidino-2-phenylindole), and using α-tubulin as a marker for spindles, the cells were tested for the presence of tubulin (i.e. the presence of spindles) by immunofluorescence with an anti-tubulin antibody (primary antibody) to identify the tubulin and a fluorescent dye (ALEXA FLUOR(registered trademark) 555)-labeled secondary antibody to identify the primary antibody. In addition, using centrin-2 as a marker for centrosomes (centrioles), the cells were tested for the presence of centrin-2 (i.e. the presence of centrosomes) by immunofluorescence with an anti-centrin-2 antibody (primary antibody) to identify the centrin-2 and a fluorescent dye-labeled secondary antibody to identify the primary antibody.

Sequence	Multipolar level (%) [1] [%]	Multipolar level (%) [2] [%]	Number of multipolar cells [2]	Multipolar level (%) [3] [%]	Number of multipolar cells [3]
EFEYFHPATFRL [Sample 8]	26	–	–	–	–
GAVTYSRISGQY [Sample 10]	29	–	–	–	–
GPHHYWYHLRLP [Sample 4]	28	48.3	29	13.6	14
GPHLGMNQRRRP [Sample 9]	27	55.0	33	10.4	11
NMTTYPMHNNTV [Sample 6]	32	–	–	–	–
NMTTYPMHNNTVKKRTLRKNDRKKR [Sample 16]	33	–	–	–	–
QSPVNHHYHYHI [Sample 5]	34	41.7	25	10.8	12
SLLPHSNHAKHY [Sample 7]	28	43.3	26	13.0	13
SVSVGMKPSPRP [Sample 1]	30	40.0	24	11.5	12
SVSVGMKPSPRPKKRTLRKNDRKKR [Sample 11]	32	41.7	25	12.7	13
TPSLPPTMFRLT [Sample 3]	32	–	–	–	–
